We go through one molecule from US20210308143A1, “COMPOSITIONS AND METHODS FOR REDUCING BODY FAT” (Topokine Therapeutics, Inc., priority 2006, published 2021).

The test system of data set [1] is 3T3-L1 preadipocytes and mature adipocytes. Nature of the data set: MTS test for cell viability. Type of data set: cell-based, mouse. The protocol:
(§1) Preparation of preadipocytes. 3T3-L1 mouse embryo fibroblasts are obtained and cultured. Cells are cultured at 37° C. in a humidified 5% CO2 atmosphere and grown in Dulbecco's modified Eagle's medium (DMEM) with 10% bovine calf serum. Confluency is induced for 2 days (Days −1 and 0) and preadipocytes are cultured in DMEM with 10% fetal bovine serum (FBS/DMEM) medium, supplemented with 167 nM insulin, […] isobutylmethylxanthine, and 1 μM dexamethasone for 2 days (Days 1 and 2).
Preparation (induction) of mature adipocytes from preadipocytes. Preadipocytes prepared as above are then maintained in a culture medium with 167 nM insulin supplement for another 2 days (Days 3 and 4), followed by culturing with 10% FBS/DMEM medium for an additional 4 days (Days 5-8), at which time >90% of the cells are expected to have differentiated and matured into adipocytes with accumulated fat droplets. All media contains 100 U/mL penicillin, 100 μg/mL streptomycin, and 292 μg of L-glutamine/mL. […]
Test for cell viability. […] The plate is analyzed by spectrometry at a wavelength of 490 nm, which is an absorbance peak for formazan. The quantity of formazan as measured by absorbance at 490 nm is a directly proportional to the number of viable cells.
(In general: Tetrazolium dyes change colour on reduction, which living cells bring about.)

Data set [2] concerns mature adipocytes (from 3T3-L1). Nature of the data set: Laser scanning cytometry (annexin V/PI) test for apoptosis. The data set is classed as cell-based, mouse. As to conditions: 24 hours. The protocol: as §1
(§2) Preparation (induction) of mature adipocytes from preadipocytes. Preadipocytes prepared as above are then maintained in a culture medium with 167 nM insulin supplement for another 2 days (Days 3 and 4), followed by culturing with 10% FBS/DMEM medium for an additional 4 days (Days 5-8), at which time >90% of the cells are expected to have differentiated and matured into adipocytes with accumulated fat droplets. All media contains 100 U/mL penicillin, 100 μg/mL streptomycin, and 292 μg of L-glutamine/mL.
All experiments, except where otherwise indicated, are performed with bimatoprost added to the culture medium for a final concentration of 0%, 0.003%, 0.03%, or 0.3% for a duration of 3, 6, 12, or 24 hours [with 1:1000 dimethyl sulfoxide (DMSO)]. […]
Test for apoptosis (1). […] Apoptotic cells fluoresce and are detected by LSC, since AV binds specifically to phosphatidylserine in the disrupted plasma membrane. […]

The subject of data set [3] is 3T3-L1 preadipocytes and mature adipocytes. Nature of the data set: TUNEL imaging test for apoptosis. The data set is classed as cell-based, mouse. The procedure:
as §1, §2
Test for apoptosis (2). Terminal Deoxynucleotidyl Transferase dUTP Nick-End Labeling (TUNEL) Imaging is one of the most common assays for apoptosis. […] Apoptosis manifests as fluorescence upon microscopic examination, which reflects the antibody-labeled BrdU incorporated at the cleaved portions of DNA.

Another data set relates to 3T3-L1 preadipocytes. Nature of the data set: Oil-Red-O test for differentiation of preadipocytes into mature adipocytes. The data set is classed as cell-based, mouse. The protocol:
as §1, §2
Test for differentiation of preadipocytes into mature adipocytes. Oil-Red-O, a specific lipid stain, is used to test the effect of bimatoprost on adipogenesis. […] For each dish, multiple images are taken and analyzed for average lipid droplet size, percentage lipid area, and total droplet number with software. […]

Data set [4] concerns laboratory rodents (hairless rats or nude mice). The experiment in a line: In vivo rodent study, daily topical ointment on abdominal skin. As to conditions: daily topical ointment 0.003-0.3%, six months. The protocol:
Animal preparation. Genetically uniform laboratory rodents (for example, hairless rats or nude mice) are used. They are adult laboratory rodents similar in size at the commencement of the study (approximately postnatal week 15 for rats). Multiple animals are tested. Animals randomized to bimatoprost are housed separately from control animals but are kept in the same room under identical environmental conditions. All animals are fed a standard diet, appropriate for the species, ad libidum.
Method. In all cases the vehicle is a compatible ointment, such as petrolatum, with a final bimatoprost concentration of 0%, 0.003%, 0.03%, or 0.3%. A fixed amount of ointment, for example 1 gram, is applied daily in a thin film over a uniform surface area of the abdominal skin of each animal. Each animal is randomized to a daily application of a dose of topical bimatoprost or vehicle alone. On a weekly basis, total body mass of each animal is determined on a scale. Total body fat is estimated by any of the several methods established for this purpose, for example, water displacement (Dahms et al. (1982) J NUTR. 112: 398-400), isotopic dilution (Culebras et al. (1977) J. PHYSIOL. 232: R60-65), Total Body Electrical Conductance (TOBEC) (Baer et al. (1993) PHYSIOL. BEHAV. 53: 1195-99), Dual-Energy X-Ray Absorptiometry (DEXA) (Bertin et al. (1998) J NUTRITION 128: 1550-54), or Nuclear Magnetic Resonance (NMR) (Kunnecke et al. (2004) OBES RES. 12: 1604-151. Animals are maintained and monitored in this fashion for six months, at which point they are sacrificed.
Analysis and Results. Abdominal fat pads of the sacrificed animals are excised and measured directly for mass and volume. Direct carcass analysis with chemical extraction may be further performed (Frisch et al. (1977) PNAS 74: 379-383). All results are normalized with reference to baseline values and then compared between bimatoprost and control groups.

A further data set deals with human subjects. Nature of the data set: In vivo human randomized double-blind study, topical ointment over triceps. Particulars: daily petrolatum ointment 0.003-0.3%, 6 months. The text has this:
Multiple human subjects (both male and female), for example, with body mass indices of 30 or more but otherwise healthy, are entered into a randomized double-blind study. Either the left or the right arm is randomized to receive topical bimatoprost; the other arm receives vehicle only. Bimatoprost is supplied in a petrolatum-based ointment (the vehicle) at a final concentration of 0%, 0.003%, 0.03% or 0.3%. Ointment containers are unlabeled as to the presence or concentration of bimatoprost. Each day, subjects apply a thin film of ointment to the skin over the respective triceps while wearing new, clean surgical gloves. Subjects are instructed to refrain from washing the treated area for at least 8 hours and are instructed to refrain from wearing tight clothing or occlusive dressings that will come into contact with the treated area. Body fat calipers are used to measure fat in the triceps region bilaterally on a weekly basis. The study continues for 6 months. […] As a result, this contemplated outcome will show, in vivo, that compounds according to the present invention, including bimatoprost, can reduce fat.

A further data set concerns human patients. Nature of the data set: Clinical application examples (Examples 4-8), local bimatoprost to reduce fat deposits. Type of data set: in vivo. Particulars: for fat pad between shoulders / fatty deposits on cheeks: daily ointment to face and between shoulders. The source says: In light of the foregoing description, the specific non-limiting examples presented below are for illustrative purposes and not intended to limit the scope of the invention in any way. In Examples 4-8, various modes of non-systemic administration of a cyclopentane heptanoic acid, 2-arylalkyl or cycloalkyl compound or derivative thereof can be used, for example, by topical application (ointment, cream, or transdermal patch), subcutaneous injection, intramuscular injection, or intralesional injection, any of which may involve a controlled (or sustained) release formulation or depot. In addition to medical therapy, the person's physician recommends a regimen of diet and exercise. After six months the person is unable to lose weight. The physician prescribes daily topical application of a bimatoprost ointment to the abdomen as treatment for central obesity. […] The person's physician prescribes a daily application of a bimatoprost ointment to the face and between the shoulders as treatment for the fat deposits. […] The person's physician prescribes a daily application of a bimatoprost ointment to the face and between the shoulders as treatment for the fat deposits. […] The plastic surgeon prescribes a daily application of a bimatoprost ointment to the hips and thighs as treatment for the fat deposits. […] The doctor prescribes an ophthalmic preparation of bimatoprost daily to both eyes as a treatment for the proptosis and exposure symptoms.

A further data set relates to human eye. Particulars: eyedrops, glaucoma, cited from earlier work.
Setting [5] is: preadipocytes and/or mature adipocytes.
Setting [6] is: Example 4, obese person, daily ointment to abdomen.
[7] abbreviates: Example 5, Cushing syndrome secondary to prednisone.
The mark [8] stands for this setting: Example 6, HIV-related lipodystrophy.
Where [9] appears, read: Example 8, Grave's disease orbitopathy, ophthalmic preparation daily to both eyes.

Molecules are shown by their SMILES. “Also recorded” adds a separate entry of the source.

With `CCNC(=O)CCC/C=C\C[C@@H]1[C@@H](/C=C/[C@@H](O)CCc2ccccc2)[C@H](O)C[C@@H]1O` [bimatoprost, cyclopentane N-ethyl heptenamide-5-cis-2-(3α-hydroxy-5-phenyl-1-trans-pentenyl)-3,5-dihydroxy, [1α, 2β, 3α, 5α]], the “absorbance at 490 nm on MTS testing, treated cells compared to control cells” value in data set [1] (bimatoprost 0.003%, 0.03% or 0.3%, up to 24 hours, vs DMSO control) is on record as “lower absorbance at 490 nm”. Further, the “rates of viability compared to control samples” value in data set [1] (setting [5]) is “lower rates of viability”. Also, the “AV-labeled and/or PI-labeled cells on laser scanning cytometry compared to control samples” value in data set [2] was “more AV-labeled and/or PI-labeled (apoptotic or dead) cells”. Further, the “BrdU-antibody-labeled cells on TUNEL imaging compared to control samples” value in data set [3] (preadipocytes and mature adipocytes, 24 hours) is on record as “more BrdU-antibody-labeled (fluorescent) cells”. Also, the “rates of apoptosis compared to control samples” value in data set [3] (setting [5]) is listed as “higher rates of apoptosis”. Also, the “lipid droplets on Oil-Red-O staining compared to control samples” value in the data set with 3T3-L1 preadipocytes (bimatoprost 0.003%, 0.03%, and 0.3% μM added with induction medium) was “smaller and fewer lipid droplets”. Moreover, the “rates of differentiation into mature adipocytes compared to control samples” value in the data set with 3T3-L1 preadipocytes (preadipocytes) is “lower rates of differentiation into mature adipocytes”. Besides, in data set [4], the “subcutaneous (abdominal) fat mass compared to control animals” value is listed as “lower subcutaneous (abdominal) fat mass”, the “total body fat mass compared to control animals” value was “lower total body fat mass” and the “total body mass compared to control animals” value is reported as “lower total body mass”. Further, the “fat in treated body area (triceps, calipers) compared to vehicle-treated area” value in the data set on human subjects is “lower fat”. For the same molecule, in the data set on human patients (setting [6]), the BMI result is recorded as “BMI is reduced” and the abdominal fat deposits entry is “abdominal fat deposits are reduced”. Moreover, in the data set on human patients (setting [7]), the “fat pad between shoulders” value was “fat pad between their shoulders is reduced” and the “fatty deposits on cheeks” value is on record as “fatty deposits on the person's cheeks are reduced”. Further, in the data set with human patients (setting [8]), the “fat pad between shoulders” value is “fat pad between their shoulders is reduced” and the “fatty deposits on cheeks” value is on record as “fatty deposits on the person's cheeks are reduced”. The “fatty deposits on hips and/or thighs” value in the data set on human patients (Example 7, daily ointment to hips and thighs) is on record as “fatty deposits on the person's hips and/or thighs are reduced”. Further, in the data set on human patients (setting [9]), the “condition (proptosis and exposure symptoms)” value is “their condition improves”; the orbital fat entry is recorded as “orbital fat is reduced”. Moreover, the unwanted side-effects entry with human eye (Peplinski et al. (2004)) is “periocular pigmentary changes involving the eyelid; also recorded: deepening of the lid sulcus”. Further, in the data set on human eye, the intraocular pressure result is given as “decrease intraocular pressure”.
